The values below come from US20260085067A1, “CYCLIC SULFONAMIDE RIBONUCLEOTIDE REDUCTASE (RNR) INHIBITORS AND USES THEREOF” (Boundless Bio, Inc., priority 2022, published 2026).

For orientation: IC50 means the point on the concentration scale where inhibition reaches its midpoint.

This experiment concerns pCHK1 (S345) in Colo320 DM cells. The experiment can be described thus: Alphalisa assay, detection of pCHK1 (S345) in Colo320 DM cells. It counts as cell-based, human. To be noted: Homo sapiens, COLO 320DM, compound overnight (approximately 16 hours). On the procedure:
Colo320 DM cells (ATCC #CCL-220, derived from human colorectal adenocarcinoma, Dukes' type C) were seeded on a […], cell culture treated assay plate at a density of 50,000 cells/well in 200 μL of RPMI-1640 media supplemented with 10% Fetal Bovine Serum and incubated at 37° C. overnight. The following day, test compound dilutions were added directly to the plated cells by a Tecan digital dispenser to a final DMSO concentration of <0.5%. and incubated at 37° C. overnight (approximately 16 hours). The following day all cell culture media was removed from the cells. 75 μL of 1×AlphaLisa lysis buffer was added to each well and plates were agitated on a shaker for 30 minutes at room temperature. The lysis of cells and detection of pCHK1 (S345) were performed with reagents contained within the AlphaLisa Sure Fire assay kit (Perkin Elmer #ALSU-PCHK1-A) according to the manufacturer's instructions. 10 μL of each lysate was then transferred to a white, 384-well assay plate (Perkin Elmer #6008280). 5 μL of Acceptor mix was then added to each well of lysate in the white, 384-well assay plate and incubated in the dark at room temperature for 60 minutes. 5 μL of Donor mix was then added to each well of the white, 384-well assay plate in subdued light and incubated at room temperature for 60 minutes. Plates were read on an Alpha Technology-compatible plate reader using standard AlphaLisa settings.
`Cc1ccc(F)c([C@@H](C)[C@@H](c2n[nH]c(=O)o2)N2C(C)N(C)c3cc(Cl)ccc3S2(=O)=O)c1C` (stereo partly drawn) [Example 11, 5-((1S,2R)-1-(6-chloro-3,4-dimethyl-1,1-dioxido-3,4-dihydro-2H-benzo[e][1,2,4]thiadiazin-2-yl)-2-(6-fluoro-2,3-dimethylphenyl)propyl)-1,3,4-oxadiazol-2 (3H)-one] displayed an IC50 of 10 to 50 µM.

Compound `Cc1ccc(F)c([C@@H](C)[C@@H](c2n[nH]c(=O)o2)N2COc3c(ccc(Cl)c3C)S2(=O)=O)c1C` [Example 31, 5-((1S,2R)-1-(6-chloro-5-methyl-1,1-dioxidobenzo[e][1,4,3]oxathiazin-2 (3H)-yl)-2-(6-fluoro-2,3-dimethylphenyl)propyl)-1,3,4-oxadiazol-2 (3H)-one] yielded an IC50 of 1 to 5 µM.

In the case of `Cc1ccc(F)c([C@@H](C)[C@@H](c2n[nH]c(=O)o2)N2CN(CC(C)(C)O)c3cc(Cl)ccc3S2(=O)=O)c1C` [Example 91, 5-((1S,2R)-1-(6-chloro-4-(2-hydroxy-2-methylpropyl)-1,1-dioxido-3,4-dihydro-2H-benzo[e][1,2,4]thiadiazin-2-yl)-2-(6-fluoro-2,3-dimethylphenyl)propyl)-1,3,4-oxadiazol-2 (3H)-one], the IC50 is no more than 1 µM.

Turning to `CC(=O)c1cc(Cl)cc2c1S(=O)(=O)N([C@H](c1n[nH]c(=O)o1)[C@@H](C)c1c(F)ccc(C)c1C)CN2C1CC1` [Example 94, 5-((1S,2S)-1-(8-acetyl-6-chloro-4-cyclopropyl-1,1-dioxido-3,4-dihydro-2H-benzo[e][1,2,4]thiadiazin-2-yl)-2-(6-fluoro-2,3-dimethylphenyl)propyl)-1,3,4-oxadiazol-2 (3H)-one], the IC50 was in the range of 1 to 5 µM.

For the compound `Cc1ccc(F)c([C@@H](C)[C@@H](c2n[nH]c(=O)o2)N2CN(C3CN(CC(F)F)C3)c3cc(Cl)ccc3S2(=O)=O)c1C` [Example 107, 5-((1S,2R)-1-(6-chloro-4-(1-(2,2-difluoroethyl)azetidin-3-yl)-1,1-dioxido-3,4-dihydro-2H-benzo[e][1,2,4]thiadiazin-2-yl)-2-(6-fluoro-2,3-dimethylphenyl)propyl)-1,3,4-oxadiazol-2 (3H)-one], the IC50 is no more than 1 µM.

As for `Cc1ccc(F)c([C@@H](C)[C@@H](c2n[nH]c(=O)o2)N2CN(CCF)c3cc(Cl)ccc3S2(=O)=O)c1C` [Example 108, 5-((1S,2R)-1-(6-chloro-4-(2-fluoroethyl)-1,1-dioxido-3,4-dihydro-2H-benzo[e][1,2,4]thiadiazin-2-yl)-2-(6-fluoro-2,3-dimethylphenyl)propyl)-1,3,4-oxadiazol-2 (3H)-one], the IC50 was no more than 1 µM. Turning to `CC(=O)c1cc(Cl)cc2c1S(=O)(=O)N([C@H](c1n[nH]c(=O)o1)[C@H](C)c1c(F)ccc(C)c1C)CN2` [Example 109, 5-((1S,2R)-1-(8-acetyl-6-chloro-1,1-dioxido-3,4-dihydro-2H-benzo[e][1,2,4]thiadiazin-2-yl)-2-(6-fluoro-2,3-dimethylphenyl)propyl)-1,3,4-oxadiazol-2 (3H)-one], the IC50 is no more than 1 µM. Take `CC(=O)c1cc(Cl)cc2c1S(=O)(=O)N([C@H](c1n[nH]c(=O)o1)[C@H](C)c1c(F)ccc(C)c1C)CN2CCO` [Example 110, 5-((1S,2R)-1-(8-acetyl-6-chloro-4-(2-hydroxyethyl)-1,1-dioxido-3,4-dihydro-2H-benzo[e][1,2,4]thiadiazin-2-yl)-2-(6-fluoro-2,3-dimethylphenyl)propyl)-1,3,4-oxadiazol-2 (3H)-one]: the IC50 is no more than 1 µM.

Turning to `Cc1ccc(F)c([C@@H](C)[C@@H](c2n[nH]c(=O)o2)N2CN([C@H]3C[C@@H](N(C)C)C3)c3cc(Cl)ccc3S2(=O)=O)c1C` [Example 111, 5-((1S,2R)-1-(6-chloro-4-((1s,3R)-3-(dimethylamino)cyclobutyl)-1,1-dioxido-3,4-dihydro-2H-benzo[e][1,2,4]thiadiazin-2-yl)-2-(6-fluoro-2,3-dimethylphenyl)propyl)-1,3,4-oxadiazol-2 (3H)-one], the IC50 is no more than 1 µM. Compound `Cc1ccc(F)c([C@@H](C)[C@@H](c2n[nH]c(=O)o2)N2CN([C@H]3C[C@@H](O)C3)c3cc(Cl)ccc3S2(=O)=O)c1C` [Example 112, 5-((1S,2R)-1-(6-chloro-4-((1s,3R)-3-hydroxycyclobutyl)-1,1-dioxido-3,4-dihydro-2H-benzo[e][1,2,4]thiadiazin-2-yl)-2-(6-fluoro-2,3-dimethylphenyl)propyl)-1,3,4-oxadiazol-2 (3H)-one] displayed an IC50 of no more than 1 µM. `Cc1ccc(F)c([C@@H](C)[C@@H](c2n[nH]c(=O)o2)N2CN(CCN)c3cc(Cl)ccc3S2(=O)=O)c1C` [Example 113, 5-((1S,2R)-1-(4-(2-aminoethyl)-6-chloro-1,1-dioxido-3,4-dihydro-2H-benzo[e][1,2,4]thiadiazin-2-yl)-2-(6-fluoro-2,3-dimethylphenyl)propyl)-1,3,4-oxadiazol-2 (3H)-one] showed an IC50 of 5 to 10 µM. With `Cc1ccc(F)c([C@@H](C)[C@@H](c2n[nH]c(=O)o2)N2CN(OCc3ccccc3)c3cc(Cl)ccc3S2(=O)=O)c1C` [Example 114, 5-((1S,2R)-1-(4-(benzyloxy)-6-chloro-1,1-dioxido-3,4-dihydro-2H-benzo[e][1,2,4]thiadiazin-2-yl)-2-(6-fluoro-2,3-dimethylphenyl)propyl)-1,3,4-oxadiazol-2 (3H)-one] the figure was 5 to 10 µM; with `CNCCN1CN([C@H](c2n[nH]c(=O)o2)[C@H](C)c2c(F)ccc(C)c2C)S(=O)(=O)c2ccc(Cl)cc21` [Example 115, 5-((1S,2R)-1-(6-chloro-4-(2-(methylamino)ethyl)-1,1-dioxido-3,4-dihydro-2H-benzo[e][1,2,4]thiadiazin-2-yl)-2-(6-fluoro-2,3-dimethylphenyl)propyl)-1,3,4-oxadiazol-2 (3H)-one], 5 to 10 µM; with `CC(=O)c1cc(Cl)cc2c1S(=O)(=O)N([C@H](c1n[nH]c(=O)o1)[C@H](C)c1c(F)ccc(C)c1C)CC(=O)N2` [Example 119, 5-((1S,2R)-1-(9-acetyl-7-chloro-1,1-dioxido-4-oxo-4,5-dihydrobenzo[f][1,2,5]thiadiazepin-2 (3H)-yl)-2-(6-fluoro-2,3-dimethylphenyl)propyl)-1,3,4-oxadiazol-2 (3H)-one], 5 to 10 µM.
